# Earlier results as cited in US20090054381A1, “METHODS FOR TREATING RESPIRATORY DISORDERS” (NitroMed, Inc., priority 2005, published 2009).
# Structures can show the parent of a compound that is named as a salt.
solubility in alcohol (alcohol),solubility in ether (ether),SMILES,"solubility in organic solvents (organic solvents such as ethanol, ether and chloroform)",solubility in water
,,"O=[N+]([O-])O[C@H]1CO[C@H]2[C@@H]1OC[C@H]2O[N+](=O)[O-] [Diluted isosorbide dinitrate, 1,4,3,6-dianhydro-D-glucitol-2,5-dinitrate]",freely soluble,sparingly soluble
slightly soluble,very slightly soluble,"NNc1nncc2ccccc12 [Hydralazine hydrochloride, hydralazine hydrochloride]",,soluble
